Experimental data reported in ChEMBL document CHEMBL4229365, “Synthesis of novel ring-contracted artemisinin dimers with potent anticancer activities” (Eur J Med Chem, 2018).
Calls of active or inactive are those of the source. The rule behind the calls is not given here.

How the values were obtained:
[1] = Stability of the compound in air at 60 degC after 24 hrs; type: physicochemical
[2] = tested on: A-375; assay: Antiproliferative activity against human A375 cells after 72 hrs by CCK-8 assay; type: functional, cell-based; settings: A-375, 72 h
[3] = tested on: A549; assay: Antiproliferative activity against human A549 cells after 72 hrs by CCK-8 assay; type: functional, cell-based; settings: A549, 72 h
[4] = tested on: SH-SY5Y; assay: Antiproliferative activity against human SH-SY5Y cells after 72 hrs by CCK-8 assay; type: functional, cell-based
[5] = tested on: HCT-116; assay: Antiproliferative activity against human HCT116 cells after 72 hrs by CCK-8 assay; type: functional, cell-based; settings: HCT-116, 72 h
[6] = tested on: PC-12; assay: Antiproliferative activity against rat PC12 cells after 72 hrs by CCK-8 assay; type: functional, cell-based; settings: PC-12, 72 h
[7] = tested on: L02; assay: Antiproliferative activity against human L02 cells after 72 hrs by CCK-8 assay; type: cell-based; settings: L02, 72 h
[8] = Half life in human liver microsomes at 1.11 uM preincubated for 10 mins followed by NADPH addition by LC-MS/MS analysis; type: ADME, microsome
[9] = Clearance in human liver microsomes at 1.11 uM preincubated for 10 mins followed by NADPH addition by LC-MS/MS analysis; type: ADME, microsome; settings: read-out: CLH
[10] = tested on: PC-12; assay: Cell cycle arrest in rat PC12 cells assessed as accumulation at G1 phase at 1 uM after 24 hrs by propidium iodide/RNase A staining-based flow cytometric analysis (reference value: 58.07%); type: functional
[11] = tested on: PC-12; assay: Cell cycle arrest in rat PC12 cells assessed as accumulation at S phase at 1 uM after 24 hrs by propidium iodide/RNase A staining-based flow cytometric analysis (reference value: 30.30%); type: functional
[12] = tested on: PC-12; assay: Cell cycle arrest in rat PC12 cells assessed as accumulation at G2 phase at 1 uM after 24 hrs by propidium iodide/RNase A staining-based flow cytometric analysis (reference value: 11.63%); type: functional
[13] = tested on: PC-12; assay: Cell cycle arrest in rat PC12 cells assessed as accumulation at G1 phase at 3 uM after 24 hrs by propidium iodide/RNase A staining-based flow cytometric analysis (reference value: 58.07%); type: functional
[14] = tested on: PC-12; assay: Cell cycle arrest in rat PC12 cells assessed as accumulation at S phase at 3 uM after 24 hrs by propidium iodide/RNase A staining-based flow cytometric analysis (reference value: 30.30%); type: functional
[15] = tested on: PC-12; assay: Cell cycle arrest in rat PC12 cells assessed as accumulation at G2 phase at 3 uM after 24 hrs by propidium iodide/RNase A staining-based flow cytometric analysis (reference value: 11.63%); type: functional
[16] = tested on: PC-12; assay: Cell cycle arrest in rat PC12 cells assessed as accumulation at G1 phase at 5 uM after 24 hrs by propidium iodide/RNase A staining-based flow cytometric analysis (reference value: 58.07%); type: functional
[17] = tested on: PC-12; assay: Cell cycle arrest in rat PC12 cells assessed as accumulation at S phase at 5 uM after 24 hrs by propidium iodide/RNase A staining-based flow cytometric analysis (reference value: 30.30%); type: functional
[18] = tested on: PC-12; assay: Cell cycle arrest in rat PC12 cells assessed as accumulation at G2 phase at 5 uM after 24 hrs by propidium iodide/RNase A staining-based flow cytometric analysis (reference value: 11.63%); type: functional
[19] = tested on: PC-12; assay: Cell cycle arrest in rat PC12 cells assessed as accumulation at G1 phase after 24 hrs by propidium iodide/RNase A staining-based flow cytometric analysis; type: functional
[20] = tested on: PC-12; assay: Induction of apoptosis in rat PC12 cells assessed as nuclear condensation up to 3.13 uM after 24 hrs by Hoechst 33258 staining-based fluorescence microscopic method; type: functional, cell-based
[21] = tested on: PC-12; assay: Induction of apoptosis in rat PC12 cells assessed as nuclear fragmentation up to 3.13 uM after 24 hrs by Hoechst 33258 staining-based fluorescence microscopic method; type: functional, cell-based
[22] = tested on: PC-12; assay: Induction of apoptosis in rat PC12 cells assessed as apoptotic cells up to 3.13 uM after 24 hrs by Annexin V-FITC/propidium iodide staining-based flow cytometric analysis (reference value: 6.56%); type: functional
[23] = tested on: PC-12; assay: Induction of apoptosis in rat PC12 cells assessed as increase in Bax protein expression up to 5 uM after 72 hrs by Western blot analysis; type: functional, cell-based
[24] = tested on: PC-12; assay: Induction of apoptosis in rat PC12 cells assessed as increase in Bad protein expression up to 5 uM after 72 hrs by Western blot analysis; type: functional, cell-based
[25] = tested on: PC-12; assay: Induction of apoptosis in rat PC12 cells assessed as decrease in Bcl-xL level up to 5 uM after 72 hrs by Western blot analysis; type: functional, cell-based
[26] = tested on: PC-12; assay: Induction of apoptosis in rat PC12 cells assessed as increase in cleaved caspase3 expression level after 72 hrs by Western blot analysis; type: functional, cell-based
[27] = tested on: PC-12; assay: Induction of apoptosis in rat PC12 cells assessed as increase in cleaved caspase9 expression level after 72 hrs by Western blot analysis; type: functional, cell-based

| SMILES | IC50 [2] | IC50 [3] | IC50 [4] | IC50 [5] | IC50 [6] | IC50 [7] | half-life at 1.11 µM [8] | other results |
| --- | --- | --- | --- | --- | --- | --- | --- | --- |
| C[C@@H]1CC[C@@H]2[C@]34OO[C@](C)(CC[C@@H]13)O[C@H]4O[C@]2(C)COP(=O)(OC[C@@]1(C)O[C@@H]2O[C@@]3(C)CC[C@H]4[C@H](C)CC[C@@H]1[C@@]24OO3)Oc1ccccc1 | 5.96 µM | 6.37 µM | 3.48 µM | 6.61 µM | 1.56 µM | 10.3 µM | 18.3 min | Stability [1]: Stable; microsomal CLint at 1.11 µM [9]: 54 µL/min/mg; Activity [10]: 76.54%; Activity [11]: 14.7%; Activity [12]: 8.77%; Activity [13]: 79.4%; Activity [14]: 13.79%; Activity [15]: 6.81%; Activity [16]: 86.06%; Activity [17]: 10.33%; Activity [18]: 3.61%; Activity [19]: Dose-dependent effect; Activity [20]: Active; Activity [21]: Active; Activity [22]: 6.56 - 31.04%; Activity [23]: Active; Activity [24]: Active; Activity [25]: Active; Activity [26]: Dose-dependent effect; Activity [27]: Dose-dependent effect |
| C[C@]12CC[C@H]3[C@@H](CCC4=CC(=O)CC[C@@]43C)[C@@H]1CC[C@@H]2O [TESTOSTERONE] | – | – | – | – | – | – | 10.3 min | – |
| C[C@@H]1CC[C@H]2[C@@H](O)[C@H](OC(=O)CCC(=O)O[C@@H]3O[C@@H]4O[C@@]5(C)CC[C@H]6[C@H](C)CC[C@@H]([C@H]3O)[C@@]46OO5)O[C@@H]3O[C@@]4(C)CC[C@@H]1[C@]32OO4 | 33.5 µM | 45.7 µM | > 50 µM | 36.3 µM | > 50 µM | > 50 µM | 8 min | Stability [1]: Stable; microsomal CLint at 1.11 µM [9]: 124 µL/min/mg |
| C[C@@H]1CC[C@@H]2[C@]34OO[C@](C)(CC[C@@H]13)O[C@H]4O[C@]2(C)C(=O)Nc1ccccc1NC(=O)[C@@]1(C)O[C@@H]2O[C@@]3(C)CC[C@H]4[C@H](C)CC[C@@H]1[C@@]24OO3 | 11.3 µM | 31.6 µM | 5.75 µM | 20 µM | 18.2 µM | > 50 µM | – | – |
| C[C@@H]1CC[C@@H]2[C@]34OO[C@](C)(CC[C@@H]13)O[C@H]4O[C@]2(C)C(=O)OCCCCCCCCOC(=O)[C@@]1(C)O[C@@H]2O[C@@]3(C)CC[C@H]4[C@H](C)CC[C@@H]1[C@@]24OO3 | 5.73 µM | 4.69 µM | 4.87 µM | 31.6 µM | 5.67 µM | 4.84 µM | – | – |
| C[C@@H]1CC[C@@H]2[C@]34OO[C@](C)(CC[C@@H]13)O[C@H]4O[C@]2(C)C(=O)OCCCCCCCCCOC(=O)[C@@]1(C)O[C@@H]2O[C@@]3(C)CC[C@H]4[C@H](C)CC[C@@H]1[C@@]24OO3 | 8.13 µM | 12.2 µM | 5.12 µM | 7.41 µM | 4.46 µM | 33.7 µM | – | – |
| C[C@@H]1CC[C@@H]2[C@]34OO[C@](C)(CC[C@@H]13)O[C@H]4O[C@]2(C)C(=O)OCCCCCCOC(=O)[C@@]1(C)O[C@@H]2O[C@@]3(C)CC[C@H]4[C@H](C)CC[C@@H]1[C@@]24OO3 | 22.6 µM | > 50 µM | 15.3 µM | > 50 µM | 33.2 µM | > 50 µM | – | – |
| C[C@H]1[C@@H](O)O[C@@H]2O[C@@]3(C)CC[C@H]4[C@H](C)CC[C@@H]1[C@@]24OO3 [ARTENIMOL] | > 50 µM | 29.9 µM | > 50 µM | 32.8 µM | > 50 µM | > 50 µM | – | – |
